Measured values from US20230312587A1, “PTERIDINONE COMPOUNDS AND USES THEREOF” (Vertex Pharmaceutical Incorporated, priority 2018, published 2023).
Like-named read-outs stand apart in the source and are kept apart here.

How the values were obtained:
Assay type in all cases: cell-based
[1] = test system: β-catenin-TCF-mediated reporter transcription activity in Colo 205 cells; assay: Colo 205 reporter assay (TCF/LEF luciferase); settings: five hours after addition of compound
How it was run: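 Luciferase signal from a TCF/LEF-driven reporter, stably integrated in Colo 205 colon cancer cells, was measured 5 h after compound addition.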

HepG2 XBP1(u)-Luc cells = assay: HepG2 XBP1 reporter assay; settings: 6 h
How it was run: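 Reporter cells are HepG2 stably carrying unspliced XBP1 fused to firefly luciferase, which becomes in-frame after IRE1alpha-mediated splicing. SteadyGlo luminescence was normalized to DMSO-treated cells for IC50 calculation.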

HepG2 parental = assay: In vitro cell viability (CellTiter-Glo), HepG2 parental; settings: 96 hours
Experimental: HEK293 cells containing empty pCLPCx vector (HEK293 empty), HEK293 cells stably over-expression WFS1 (HEK293 WFS1), HepG2, and HepG2 cells where WFS1 was depleted via CRISPR/Cas9 (HepG2 WFS1 KO) cells were plated into 96-well black plates (Corning, product #3904) in 100 microliters of complete DMEM cell culture media [DMEM (Life Technologies, product #11960-051) media supplemented with 10% FBS (Hyclone, catalog #SH30071.03), antimycotic/antibiotic (Life Technologies, product #15240-062), and Glutamax (Life Technologies, product #35050-061)] at 1,000 (HEK293) or 5,000 (HepG2) cells per well. Cells were allowed to attach and grow overnight, after which compounds are added at various concentrations. Cell viability was assessed 96 hrs after compound addition with CellTiter-Glo reagent (Promega, catalog #G7570) according to manufacturer's protocol and measurement on a Pherastar luminescence plate reader (BMG Labtech).
To determine the effect of WFS1 depletion on compound mediated inhibition of cell viability, parental HepG2 cells and HepG2 cells where WFS1 was deleted by CRISPR/Cas9 were exposed to increasing concentrations of either Compound 136 or Compound 253 for 96 hours after which time viability was determined using Cell Titer Glo reagent (Promega). […] The IC50s for the viability of both the HepG2 parental and WFS1 knockout cells are summarized in Table 47: A<0.5 μM; 0.5 μM≤<2.0 μM; 2.0 μM≤C<10.0 μM; D≥[…].

[2] = Homo sapiens, COLO 205, 5 h, Colo 205 TCF/LEF luciferase reporter, read-out: TCF reporter Colo205 IC50
[3] = Homo sapiens, read-out: HepG2 viability
[4] = Homo sapiens, COLO 205, 5 h, Colo 205 cells with stably transfected TCF/LEF luciferase reporter, read-out: TCF reporter Colo205

| SMILES | IC50 [1, 2] | IC50 (HepG2 XBP1(u)-Luc cells; Homo sapiens) | IC50 (HepG2 parental; [3]) | other results |
| --- | --- | --- | --- | --- |
| Cc1nc(NCc2cnn(CC(C)(O)c3ccc(F)cc3)c2)nc2c1NC(=O)[C@H](C)N2C (stereo partly drawn) [Compound 128, (7S)-2-(((1-(2-(4-fluorophenyl)-2-hydroxypropyl)-1H-pyrazol-4-yl)methyl)amino)-4,7,8-trimethyl-7,8-dihydropteridin-6(5H)-one] | 1000 to 5000 nM | 2000 to 10000 nM | 2000 to 10000 nM |  |
| Cc1nc(NCc2cnn(Cc3ccc(C(F)(F)F)nc3)c2)nc2c1NC(=O)[C@H](C)N2C [Compound 136, (7S)-4,7,8-trimethyl-2-(((1-((6-(trifluoromethyl)pyridin-3-yl)methyl)-111-pyrazol-4-yl)methyl)amino)-7,8-dihydropteridin-6(5H)-one] |  |  |  | IC50 ([1]; Colo 205 TCF/LEF luciferase reporter, read-out: TCF reporter Colo205 IC50): < 300 nM; IC50 (HepG2 XBP1(u)-Luc cells): 600 to 2000 nM; IC50 (HepG2 parental; read-out: HepG2 viability): 500 to 2000 nM; IC50 (HepG2 parental; cell viability, Cell Titer Glo, read-out: IC50): 330 nM; IC50 (HepG2 parental; cell viability, read-out: IC50 class): < 500 nM |
| Cc1nn(C)cc1Cn1cc(CNc2nc(C)c3c(n2)N(C)[C@@H](C)C(=O)N3)cn1 [Compound 139, (7S)-2-(((1-((1,3-dimethyl-1H-pyrazol-4-yl)methyl)-1H-pyrazol-4-yl)methyl)amino)-4,7,8-trimethyl-7,8-dihydropteridin-6(5H)-one] | 1000 to 5000 nM | ≥ 10000 nM | ≥ 10000 nM |  |
| Cc1nc(NCc2cnn(Cc3ccc(C(F)(F)F)cc3)c2)nc2c1NC(=O)[C@H](C)N2C [Compound 149, (7S)-4,7,8-trimethyl-2-(((1-(4-(trifluoromethyl)benzyl)-1H-pyrazol-4-yl)methyl)amino)-7,8-dihydropteridin-6(5H)-one] | < 300 nM | < 600 nM | < 500 nM |  |
| Cc1ncc(Cn2cc(CNc3nc(C)c4c(n3)N(C)[C@@H](C)C(=O)N4)cn2)cn1 [Compound 163, (7S)-4,7,8-trimethyl-2-(((1-((2-methylpyrimidin-5-yl)methyl)-1H-pyrazol-4-yl)methyl)amino)-7,8-dihydropteridin-6(5H)-one] | 1000 to 5000 nM | ≥ 10000 nM | ≥ 10000 nM |  |
| Cc1cnc(C(F)(F)F)nc1-n1cc(CNc2ncc3c(n2)N(C)[C@@H](C)C(=O)N3)cn1 [Compound 164, (7S)-7,8-dimethyl-2-(((1-(5-methyl-2-(trifluoromethyl)pyrimidin-4-yl)-1H-pyrazol-4-yl)methyl)amino)-7,8-dihydropteridin-6(5H)-one] | 1000 to 5000 nM | 2000 to 10000 nM | ≥ 10000 nM |  |
| Cc1nc(NCc2cnn([C@@H]3CCN(c4ccc(F)cc4)C3)c2)nc2c1NC(=O)[C@H](C)N2C [Compound 170, (7S)-2-(((1-((R)-1-(4-fluorophenyl)pyrrolidin-3-yl)-1H-pyrazol-4-yl)methyl)amino)-4,7,8-trimethyl-7,8-dihydropteridin-6(5H)-one] | < 300 nM | < 600 nM | < 500 nM |  |
| Cc1nc(NCc2cnn(Cc3ccc(F)cc3)c2)nc2c1NC(=O)C1(CC1)N2 [Compound 222, 2′-(((1-(4-fluorobenzyl)-1H-pyrazol-4-yl)methyl)amino)-4′-methyl-5′,8′-dihydro-6′H-spiro[cyclopropane-1,7′-pteridin]-6′-one] | ≥ 5000 nM | ≥ 10000 nM | ≥ 10000 nM |  |
| CN1C(=O)C(C)(C)N(C)c2nc(NCc3cnn(Cc4cccnc4C(F)(F)F)c3)ncc21 [Compound 237, 5,7,7,8-Tetramethyl-2-(((1-((2-(trifluoromethyl)pyridin-3-yl)methyl)-1H-pyrazol-4-yl)methyl)amino)-7,8-dihydropteridin-6(5H)-one] | 300 to 1000 nM | 600 to 2000 nM | ≥ 10000 nM |  |

Second part, led by results:

| IC50 [1, 2] | IC50 (HepG2 XBP1(u)-Luc cells; Homo sapiens) | SMILES | IC50 (HepG2 parental; [3]) | other results |
| --- | --- | --- | --- | --- |
| 1000 to 5000 nM | ≥ 10000 nM | Cc1nc(N[C@H]2C[C@@H](Oc3cc(F)c(F)c(F)c3)C2)nc2c1NC(=O)[C@H](C)N2C [Compound 247, (7S)-4,7,8-trimethyl-2-((cis-3-(3,4,5-trifluorophenoxy)cyclobutyl)amino)-7,8-dihydropteridin-6(5H)-one] | 2000 to 10000 nM |  |
| 300 to 1000 nM | 2000 to 10000 nM | Cc1nc(N[C@H]2C[C@@H](Sc3ccc(F)cc3)C2)nc2c1N(C)C(=O)[C@H](C)N2C [Compound 305, (7S)-2-((cis-3-((4-fluorophenyl)thio)cyclobutyl)amino)-4,5,7,8-tetramethyl-7,8-dihydropteridin-6(5H)-one] | ≥ 10000 nM |  |
| 1000 to 5000 nM | 600 to 2000 nM | Cc1nc(N[C@H]2C[C@H](Sc3ccc(F)cc3)C2)nc2c1N(C)C(=O)[C@H](C)N2C [Compound 307, (7S)-2-((trans-3-((4-fluorophenyl)thio)cyclobutyl)amino)-4,5,7,8-tetramethyl-7,8-dihydropteridin-6(5H)-one] | 2000 to 10000 nM |  |
| < 300 nM | < 600 nM | Cc1nc(N[C@H]2C[C@H](Oc3ccnc(C(F)(F)F)c3)C2)nc2c1NC(=O)[C@H](C)N2C [Compound 335, (7S)-4,7,8-trimethyl-2-((trans-3-((2-(trifluoromethyl)pyridin-4-yl)oxy)cyclobutyl)amino)-7,8-dihydropteridin-6(5H)-one] | 2000 to 10000 nM |  |
| 300 to 1000 nM | < 600 nM | Cc1nc(N[C@H]2C[C@@H](COc3ccc(C(F)(F)F)cn3)C2)nc2c1NC(=O)[C@H](C)N2C [Compound 356, (7S)-4,7,8-trimethyl-2-((cis-3-(((5-(trifluoromethyl)pyridin-2-yl)oxy)methyl)cyclobutyl)amino)-7,8-dihydropteridin-6(5H)-one] | ≥ 10000 nM |  |
| 1000 to 5000 nM | 2000 to 10000 nM | Cc1nc(N[C@H]2C[C@H](Oc3ccc(F)nc3)C2)nc2c1NC(=O)[C@H](C)N2C [Compound 357, (7S)-2-((trans-3-((6-fluoropyridin-3-yl)oxy)cyclobutyl)amino)-4,7,8-trimethyl-7,8-dihydropteridin-6(5H)-one] | 2000 to 10000 nM |  |
| < 300 nM | 600 to 2000 nM | Cc1nc(NCc2cnn(Cc3ccc(C(F)(F)F)nc3)c2)nc2c1NC(=O)[C@H](C(C)C)N2C [Compound 383, (7S)-7-isopropyl-4,8-dimethyl-2-(((1-((6-(trifluoromethyl)pyridin-3-yl)methyl)-1H-pyrazol-4-yl)methyl)amino)-7,8-dihydropteridin-6(5H)-one] | < 500 nM |  |
| < 300 nM | 600 to 2000 nM | Cc1nc(NCc2cnn(Cc3ccc(F)nc3)c2)nc2c1NC(=O)[C@H](C(C)C)N2C [Compound 384, (7S)-2-(((1-((6-fluoropyridin-3-yl)methyl)-1H-pyrazol-4-yl)methyl)amino)-7-isopropyl-4,8-dimethyl-7,8-dihydropteridin-6(5H)-one] | < 500 nM |  |
|  | 600 to 2000 nM | Cc1nc(NCc2cnn(Cc3ccc(C(F)(F)F)nc3)c2)nc2c1NC(=O)C1(CCC1)N2C [Compound 398, 4′,8′-dimethyl-2′-(((1-((6-(trifluoromethyl)pyridin-3-yl)methyl)-1H-pyrazol-4-yl)methyl)amino)-5′,8′-dihydro-6′H-spiro[cyclobutane-1,7′-pteridin]-6′-one] | 500 to 2000 nM | IC50 [1, 4]: < 300 nM |
|  | ≥ 10000 nM | Cc1nc(N(C)Cc2cnn(Cc3ccc(C(F)(F)F)nc3)c2)nc2c1NC(=O)[C@H](C)N2C [Compound 403, (7S)-4,7,8-trimethyl-2-(methyl((1-((6-(trifluoromethyl)pyridin-3-yl)methyl)-1H-pyrazol-4-yl)methyl)amino)-7,8-dihydropteridin-6(5H)-one] | ≥ 10000 nM | IC50 [1, 4]: ≥ 5000 nM |
|  | ≥ 10000 nM | CC(=O)N(Cc1cnn(Cc2ccc(C(F)(F)F)nc2)c1)c1nc(C)c2c(n1)N(C)[C@@H](C)C(=O)N2 [Compound 405, (7S)-N-((1-((6-(trifluoromethyl)pyridin-3-yl)methyl)-1H-pyrazol-4-yl)methyl)-N-(4,7,8-trimethyl-6-oxo-5,6,7,8-tetrahydropteridin-2-yl)acetamide] | ≥ 10000 nM | IC50 [1, 4]: ≥ 5000 nM |
|  | < 600 nM | Cc1nc(NCc2cnn(Cc3ccc(Cl)nc3)c2)nc2c1NC(=O)[C@H](C(C)C)N2C [Compound 409, (7S)-2-(((1-((6-chloropyridin-3-yl)methyl)-1H-pyrazol-4-yl)methyl)amino)-7-isopropyl-4,8-dimethyl-7,8-dihydropteridin-6(5H)-one] | < 500 nM | IC50 [1, 4]: < 300 nM |
| < 300 nM | < 600 nM | Cc1nc(NCc2cn(Cc3ccc(C(F)(F)F)nc3)nc2Br)nc2c1NC(=O)[C@H](C)N2C [Compound 412, (S)-2-(((3-bromo-1-((6-(trifluoromethyl)pyridin-3-yl)methyl)-1H-pyrazol-4-yl)methyl)amino)-4,7,8-trimethyl-7,8-dihydropteridin-6(5H)-one] | 2000 to 10000 nM |  |
